# Source: patent US20060105013A1, “Osteopontin-coated surfaces and methods of use” (priority 2000, published 2006)
# Tests used:
# Haundel/Labrador dogs = experiment: In vivo histology of bone healing around rhOPN coated Ti implants in dogs; design: species or system dog; settings: hollow screw Ti implants, dogs sacrificed after 4 and 8 weeks; vs uncoated
# From the text: Forty implants (5 per quadrant) were placed in four Haundel/Labrador dogs after extraction of four premolars (PM1-PM4) and one molar (M1), and a three month healing period. Eight hollow screw Ti implants were coated with rhOPN. Eight uncoated implants served as controls. The remaining implants were coated with 3 additional different molecules denoted as study 2, study 3, and study 4.
# Prior to implant placement, core samples from the donor place were taken to histologically analyze bone quality after extractions. This procedure, also ensured a hollow space for bone ingrowth inside the coated and uncoated implants. Dogs were sacrificed after 4 and 8 weeks.
# Implants were recovered for histological analysis. Each implant was sectioned vertically. The core inside the hallow implant was removed using liquid nitrogen. Decalcified sections were embedded in paraffin and stained using Herovichi's techniques to differentiate immature from mature collagen. Light microscopy at 4× and 40× magnifications were used to compare histological differences between rhOPN coated implants and uncoated implants.
# Uncoated implants show normal bone healing characterized by granulation tissue and a few areas of vascularization and matrix deposition after four weeks.
# HOS cells [1] = experiment: Proliferation of HOS cells on Ti disks coated with rhOPN (3H-thymidine incorporation); format: cell-based, human
# Procedure: Cell proliferation was determined by the rate of ^3H-Thymidine incorporation into DNA. Cells were labeled with 10 μCi/ml of ^3H-Thymidine in DME media. After 6 hours, the cells were lysed in cold 10% trichloroacetic acid (TCA). The TCA insoluble material was collected and washed several times with 10% TCA, then resuspended in 0.5 N NaOH. ^3H-thymidine incorporation into TCA insoluble material was used as an index of cell proliferation. The material collected was mixed with scintillation liquid (Begman). The amount of radiation generated was compared between cells grown in titanium disks uncoated, and titanium disks coated with OPN.
# (§1) Cell proliferation was determined by the rate of ^3H-Thymidine incorporation into DNA. Cells labeled with ^3H-Thymidine were seeded for 6 hours, then lysed with TCA. The TCA insoluble material was collected and resuspended in 0.5 N NaOH. ^3H-thymidine incorporation into TCA insoluble material was used as an index for cell proliferation. Rate of proliferation is expressed as cpm/1000 cells/6 h. Control group: 254,54, rhOPN group: 560,83. All measurements were done in triplicates and reported as mean±Standard error for the mean.
# Since rhOPN promoted cell attachment to Ti disks, it was of interest to examine whether the protein had any effect on the proliferation of HOS grown on Ti disks.
# HOS cells [2] = experiment: Western blot of osteopontin and BSP secreted into extracellular matrix by HOS cells on coated Ti disks; format: cell-based, human
# Procedure: Osteopontin and BSP were extracted from the extracellular matrix of HOS cells cultured on Ti disks or Ti disks coated with the recombinant Opn with lysis buffer (20 mM phosphate buffer, pH, 7.2, containing 150 mM NaCI, 0.1% SDS, 1 mM phenylmethylsulfonyl fluoride, 5 mM benzamidine, 0.1 mM e-amino caproic acid, 0.1 b-hydroxy mercuribenzoate, 0.1 mM pyrophosphate, 1 mM sodium fluoride, 1 mM sodium orthovanadate and 10 mM EDTA). Samples were then processed for Gel electrophoresis.
# Western blot analysis: Cell layer proteins and conditioned media was electrophoresed in 10% SDS-polyacrylamide slab gels at 150 volts for 4 h. For Western blot analysis resolved proteins in gels were transferred by semi-dry blotting onto nitrocellulose membranes (Schleicher & Schuell, Keene, N H), gel transfers were carried out for 90 min. at 12 V in 0.025 M Tris-glycine buffer, pH 8.2, containing 20% methanol and 0.01% Tween 20 and 10% nonfat dry milk, then incubated with rabbit anti-mouse osteopontin (Ashkar S, et al., New York Academy of Science 760:296-298, 1995) in 20 mM Phosphate buffer, pH 7.4, containing 150 mM NaCL, 0.1% Tween 20 and 1% nonfat dry milk. […] Nonspecific interaction was assessed by the interaction of the primary and secondary antibodies with rabbit serum albumin. […]
# HOS cells [3] = experiment: Proliferation of HOS cells on plastic, glass or CrCo surfaces coated with rhOPN; format: cell-based, human
# Procedure: as §1, with “h.” for “h. Control group: 254,54, rhOPN group: 560,83.”, “triplicates.” for “triplicates and reported as mean±Standard error for the mean.”
# Since rhOPN promoted cell attachment to different surfaces, it was of interest to examine whether the protein had any effect on the proliferation of HOS grown on these surfaces.
# HOS cells [4] = experiment: Attachment of HOS cells to Ti disks coated with rhOPN; format: cell-based, human; settings: Ti disks coated with 50 μg of rhOPN; after 30 min; vs uncoated
# Procedure: HOS cells were labeled overnight with 10 uCi ^3H-thymidine, then dissociated from the plate with non-enzymatic dissociation solution (Sigma), washed 2 times with PBS, and counted. ^3H-thymidine incorporated into TCA insoluble material was determined for the cells. 5000 cells (cpm total 1000) were plated onto coated or uncoated titanium disks and the disks incubated at 37° C. for 30 min. Unadhered cells were removed, and attached cells were washed 3 times with 0.5 ml PBS. The cells were lysed with ice cold 20% TCA and the radioactivity in the TCA insoluble fraction was determined using the Scintillation counter (Begman 5000).
# 5000 cells (total cpm 1000) were plated on either coated or uncoated Ti disks and incubated at 37° C. in a humidified atmosphere (95% air 5% CO2). After 30 min, unattached cells were removed and the disks were washed with PBS. The total number of attached cells was determined for the total cpm released for the disks after the cells were lysed with 10% TCA and solubilized in 5 ml scintillation fluid. All measurements were done in triplicates and graphed as mean±Standard error of the mean.
# The initial events following seeding of cells onto Ti surfaces include the attachment, migration and proliferation of the seeded cells. Coating Ti disks with 50 μg of rhOPN enhanced by 1100% the attachment of HOS cells to Ti disks (FIG. 2), after 30 min.
substance,measurement,setting,value
rhOPN: human recombinant phosphorylated form of osteopontin,bone healing around implants (histology),Haundel/Labrador dogs,enhanced bone healing
same,Rate of proliferation,HOS cells [1],"560,83 cpm/1000 cells/6 h"
same,proliferation rate relative to cells grown on uncoated Ti disks,HOS cells [1],approximately twice
same,OPN secretion into the extracellular matrix (Western blot),HOS cells [2]; HOS cells on coated Ti disks vs uncoated titanium controls,increased secretion of OPN
same,BSP extracellular matrix secretion (Western blot),"HOS cells [2]; HOS cells on rhOPN coated implants, control groups did not express BSP",less marked than the production of osteopontin
same,Proliferation Rate,HOS cells [3]; CrCo,1740 Cpm/6 h/1000 cells
same,Proliferation Rate,HOS cells [3]; Glass,2740 Cpm/6 h/1000 cells
same,Proliferation Rate,HOS cells [3]; Plastic,3300 Cpm/6 h/1000 cells
same,proliferation rate relative to cells grown on uncoated surfaces,"HOS cells [3]; glass, plastic and chromocobalt surfaces",at least twice
same,enhancement of attachment of HOS cells to Ti disks,HOS cells [4],1100%
